# How the values were obtained:
# [1] = system: pancreatic cancer stem cells (PCSC); assay: Tumor spheroid formation, PCSC; type: cell-based, human; conditions: added to culture medium, 96 hr, p≤0.001
# Experimental: Tumor self-renewing and anchorage-independent spheroids were obtained by culturing breast cancer cells MCF7, Hs587T and MDA231; melanoma cells SBcl2 and FM6; human breast cancer stem cells and pancreatic cancer stem cells in stem cell-selective conditions according to the manufacturer’s instructions (StemCell Technologies, Tukwila, WA). Briefly, cancer and cancer stem cells were propagated in 6-well ultra-low adherent plates (Corning) in Complete MammoCult Medium (Human) by adding 50 mL of MammoCult Proliferation Supplements to 450 mL of MammoCult Basal Medium (StemCell Technologies). The following were added to obtain Complete MammoCult Medium: 4 ug/mL Heparin (StemCell Technologies), 0.48 μg/mL hydrocortisone (StemCell Technologies), 200 U penicillin/ml; and 200 μg streptomycin/ml (Invitrogen).
# Figure 4 Effects of PKCδ inhibitors on human tumor cell spheroid formation. […] Tumor spheroids and adherent cells were collected at 96 hr, stained for CD24 and CD44, and analyzed by flow cytometry. […] After 24, 48 and 72 hr of exposure, cell mass was evaluated by MTT assay. […] Viable cells were enumerated and re-plated in media without BJE6-206, and spheroid numbers were quantitated 96 hr later. p values for comparison between vehicle and BJE6-106 effects on spheroid number were significant after 6 hr of exposure (p≤0.02), and remained significant at all time points thereafter. […]
# PrCSC cells = assay: Cytotoxicity (LDH release) in prostate cancer stem cells; type: cell-based, human; conditions: dose-dependent, 24 and 72 hr
# Experimental: LDH release was assessed by spectrophotometrically measuring the oxidation of NADH in both the cells and media. Cells were seeded in 24-well plates, and exposed to PKCδ inhibitors or vehicle. After different times of exposure, cytotoxicity was quantified by a standard measurement of LDH release with the use of the LDH assay kit (Roche Molecular Biochemicals) according to the manufacturer’s protocol. Briefly, total culture medium was cleared by centrifugation. For assay of released LDH, supernatants were collected. To assess total LDH in cells, Triton X-100 was added to vehicle (control) wells to release intracellular LDH. LDH assay reagent was added to lysates or supernatants and incubated for up to 30 min at room temperature in dark, the reaction was stopped, and the absorbance was measured at 490 nm. The percentage of LDH release was then calculated as the LDH in the supernatants as a fraction of the total LDH.
# Figure 2 Effects of PKCδ inhibitors on human cancer stem cells. (A) PCSC and PrCSC cells at 80% confluence were exposed to rottlerin. DMSO served as vehicle control (Vehicle). After 24 and 72 hr of exposure, cell mass was evaluated by MTT assay. Control values were normalized to 100%. p values for comparison between treatments reached significance at 24 hr of exposure (p≤0.01) for both cell types, and remained significant at 72 hr. (B) PCSC and PrCSC cells at 50% confluence were exposed to rottlerin. Cytotoxicity was evaluated by LDH-release assay. […] Viable cells were enumerated and re-plated in media without inhibitor, and colony numbers were quantitated 15 days later. p values for comparison of treatment effects on clonogenic capacity reached significance (p=0.005) at 18 hr of exposure and remained significant for all subsequent exposure times. […] Cytotoxicity was evaluated by LDH-release assay, as in panel B. p values for comparison between treatment effects on LDH release reached significance at 24 hr of exposure to 2.5 μM KAM1 for PCSC cells and at 10 μM for PrCSC (p≤0.01), and remained significant at 72 hr for all concentrations of KAM1. […]
# [2] = system: human breast cancer stem cell (BCSC) xenografts; assay: Breast cancer stem cell xenograft model; type: in vivo, mice; conditions: rottlerin 5,000 μg/kg intraperitoneally, 15 days
# Experimental: These studies were performed with the approval of the Institutional Animal Care and Use Committee of Boston University. Breast cancer stem cells (2 × 10^5) grown from a metastatic tumor were suspended in human breast cancer stem cell complete growth media (Celprogen, San Pedro, CA) and injected subcutaneous into the right flank of female J:NU mice (The Jackson Laboratory, ME) under anesthesia. After palpable tumors developed, the mice were divided into two groups of animals. The control group received daily intraperitoneal injections of vehicle (DMSO) while the treatment group received daily intraperitoneal injections of a PKCδ inhibitor (rottlerin 5,000 μg/kg) for 15 days. The length and width of tumors were measured with a vernier caliper and tumor volumes were calculated. Survival was calculated as the day tumors reached the maximum size allowed by the protocol (2 cm diameter).
# Figure 6 Effects of PKCδ inhibitor on tumor growth and survival in a xenograft human breast cancer stem cell model. Breast cancer stem cell xenografts were established and animals were treated with vehicle or rottlerin for 15 days, as described in Methods. (A) Tumor volumes plotted over time, until tumors in all the control animals reached the maximum volume allowed by the protocol (approximately 15 days). […]
Structure (SMILES),"effect on formation of spheroids, PCSC [1]",cytotoxicity in PrCSC (LDH release) (PrCSC cells),survival / tumor-free status after treatment ([2]; monitoring continued after cessation),"effect on growth of BCSC xenografts ([2]; nude (J:NU) mice, vs vehicle)"
"CC1(C)C=Cc2cc(CCn3c4ccccc4c4ccccc43)cc(C=O)c2O1 [BJE6-106, 6-(2-(9H-carbazol-9-yl)ethyl)-2,2-dimethyl-2H-chromene-8-carbaldehyde]",very efficiently inhibited,–,–,–
"CC(=O)c1c(O)c(C)c(O)c(Cc2c(O)c3c(c(C(=O)/C=C/c4ccccc4)c2O)OC(C)(C)C=C3)c1O [rottlerin, Rottlerin, reference compound]",very efficiently inhibited,induced cytotoxicity,some animals remaining tumor-free even at day 300,"effectively inhibited the growth of the xenografts, even producing tumor regression"

# From article PMC3927586, “Protein kinase C-delta inactivation inhibits the proliferation and survival of cancer stem cells in culture and in vivo” (BMC Cancer, 2014)
